Assay results: patent publication US9096624B2 (OSI Pharmaceuticals, LLC, priority 2009, dated 2015)

Legend:
[1] = biological target: T1, FAK (Homo sapiens, UniProt Q05397); assay: biochemical
[2] = biological target: T1, FAK; assay: Cell-based capture ELISA for inhibition of FAK autophosphorylation [pY397] in MiaPaCa2 cells; conditions: MIA-PaCa2 cells, + 50% mouse plasma (Table 3); read-out: Mean FAK Cell Mechanistic IC50 + 50% mP MIA-PaCa2
Description: Cell-Based Assays for Inhibition of FAK Autophosphorylation: MiaPaCa2 and U87MG
ELISA kit from Invitrogen (KHO0441).
Reagents Provided in Biosource FAK [pY397]
The cells were then suspended in cell assay medium.

T1 sequence (Q05397 whole entry): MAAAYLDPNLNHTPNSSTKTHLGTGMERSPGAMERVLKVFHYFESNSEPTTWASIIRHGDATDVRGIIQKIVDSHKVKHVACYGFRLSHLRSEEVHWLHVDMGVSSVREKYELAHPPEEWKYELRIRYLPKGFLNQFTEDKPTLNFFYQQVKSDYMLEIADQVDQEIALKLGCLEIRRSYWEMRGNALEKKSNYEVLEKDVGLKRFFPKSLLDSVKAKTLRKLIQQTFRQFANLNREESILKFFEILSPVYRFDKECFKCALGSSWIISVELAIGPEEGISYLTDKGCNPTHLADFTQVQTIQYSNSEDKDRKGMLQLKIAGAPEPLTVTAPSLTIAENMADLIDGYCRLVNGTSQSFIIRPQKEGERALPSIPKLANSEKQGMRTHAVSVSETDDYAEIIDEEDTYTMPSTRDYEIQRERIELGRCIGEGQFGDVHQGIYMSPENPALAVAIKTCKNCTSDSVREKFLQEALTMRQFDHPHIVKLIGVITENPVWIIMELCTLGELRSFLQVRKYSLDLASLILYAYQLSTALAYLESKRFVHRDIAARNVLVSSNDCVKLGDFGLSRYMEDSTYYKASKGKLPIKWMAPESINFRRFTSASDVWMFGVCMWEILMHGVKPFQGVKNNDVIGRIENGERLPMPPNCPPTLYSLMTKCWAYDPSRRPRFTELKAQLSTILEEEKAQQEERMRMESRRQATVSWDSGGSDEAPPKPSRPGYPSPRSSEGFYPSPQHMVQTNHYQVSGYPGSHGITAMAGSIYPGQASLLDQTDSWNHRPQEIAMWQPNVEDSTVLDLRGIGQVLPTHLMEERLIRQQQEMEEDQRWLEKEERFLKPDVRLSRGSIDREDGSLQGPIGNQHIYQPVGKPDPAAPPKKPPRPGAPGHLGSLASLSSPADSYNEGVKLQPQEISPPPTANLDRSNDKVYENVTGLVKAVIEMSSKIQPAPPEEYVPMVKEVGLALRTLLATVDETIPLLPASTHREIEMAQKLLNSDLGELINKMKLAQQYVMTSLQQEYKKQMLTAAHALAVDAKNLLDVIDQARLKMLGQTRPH

Compound | IC50 [1] [nM] | IC50 [2] [nM]
CCOP(=O)(OCC)C(F)c1ccc(Nc2ncc(C(F)(F)F)c(Nc3ccccc3C(=O)NC)n2)cc1 (stereo not shown) [Example 172, Diethyl [fluoro(4-{[4-{[2-(methylcarbamoyl)phenyl]amino}-5-(trifluoromethyl)pyrimidin-2-yl]amino}phenyl)methyl]phosphonate] | < 1000 | < 1000
CCOP(C)(=O)Cc1ccc(Nc2ncc(C(F)(F)F)c(Nc3ccc([C@H]4CC[C@H](O)CC4)c4c3C(=O)N(C)C4)n2)cc1 (stereo partly drawn) [Example 174, Ethyl (4-{[4-{[7-(trans-4-hydroxycyclohexyl)-2-methyl-3-oxo-2,3-dihydro-1H-isoindol-4-yl]amino}-5-(trifluoromethyl)pyrimidin-2-yl]amino}benzyl) methylphosphinate] | < 1000 | < 1000
CCOP(=O)(Cc1ccc(Nc2ncc(C(F)(F)F)c(Nc3ccc(-c4cnn(CCN(CC)CC)c4)c4c3C(=O)N(C)C4)n2)cc1)OCC [Example 175, Diethyl [4-({4-[(7-{1-[2-(diethylamino)ethyl]-1H-pyrazol-4-yl}-2-methyl-3-oxo-2,3-dihydro-1H-isoindol-4-yl)amino]-5-(trifluoromethyl)pyrimidin-2-yl}amino)benzyl]phosphonate] | < 1000 | < 1000
CCOP(=O)(Cc1ccc(Nc2ncc(C(F)(F)F)c(Nc3ccccc3C(=O)N3CCCC3)n2)cc1)OCC [Example 176, Diethyl (4-{[4-{[2-(pyrrolidin-1-ylcarbonyl)phenyl]amino}-5-(trifluoromethyl)pyrimidin-2-yl]amino}benzyl)phosphonate] | < 1000 | 1000 to 10000
CCOP(=O)(O)Cc1ccc(Nc2ncc(C(F)(F)F)c(Nc3ccc(-c4cnn(CCCO)c4)c4c3C(=O)N(C)C4)n2)cc1 [Example 182, Sodium ethyl (4-{[4-({7-[1-(3-hydroxypropyl)-1H-pyrazol-4-yl]-2-methyl-3-oxo-2,3-dihydro-1H-isoindol-4-yl}amino)-5-(trifluoromethyl)pyrimidin-2-yl]amino}benzyl)phosphonate] | < 1000 | 1000 to 10000
CCOP(=O)(Cc1ccc(Nc2ncc(C(F)(F)F)c(Nc3ccc([C@H]4CC[C@](C)(O)CC4)c4c3C(=O)N(C)C4)n2)cc1)OCC [Example 183, Diethyl (4-{[4-{[7-(trans-4-hydroxy-4-methylcyclohexyl)-2-methyl-3-oxo-2,3-dihydro-1H-isoindol-4-yl]amino}-5-(trifluoromethyl)pyrimidin-2-yl]amino}benzyl)phosphonate] | < 1000 | < 1000
CCOP(=O)(Cc1ccc(Nc2ncc(C(F)(F)F)c(Nc3ccc([C@H]4CC[C@@](C)(O)CC4)c4c3C(=O)N(C)C4)n2)cc1)OCC [Example 184, Diethyl (4-{[4-{[7-(cis-4-hydroxy-4-methylcyclohexyl)-2-methyl-3-oxo-2,3-dihydro-1H-isoindol-4-yl]amino}-5-(trifluoromethyl)pyrimidin-2-yl]amino}benzyl) phosphonate] | < 1000 | < 1000
CNC(=O)c1ccccc1Nc1nc(Nc2ccc(CP(=O)(OCCOC)OCCOC)cc2)ncc1C(F)(F)F [Example 185, Bis(2-methoxyethyl) (4-{[4-{[2-(methylcarbamoyl)phenyl]amino}-5-(trifluoromethyl)pyrimidin-2-yl]amino}benzyl)phosphonate] | < 1000 | < 1000
CCOP(=O)(OCC)C(F)(F)c1ccc(Nc2ncc(C(F)(F)F)c(Nc3ccccc3C(=O)NC)n2)cc1 [Example 188, Diethyl [difluoro(4-{[4-{[2-(methylcarbamoyl)phenyl]amino}-5-(trifluoromethyl)-pyrimidin-2-yl]amino}phenyl)methyl]phosphonate] | < 1000 | < 1000
COCCOP(=O)(Cc1ccc(Nc2ncc(C(F)(F)F)c(Nc3ccc([C@H]4CC[C@H](O)CC4)c4c3C(=O)N(C)C4)n2)cc1)OCCOC [Example 189, Bis(2-methoxyethyl) (4-{[4-{[7-(trans-4-hydroxycyclohexyl)-2-methyl-3-oxo-2,3-dihydro-1H-isoindol-4-yl]amino}-5-(trifluoromethyl)pyrimidin-2-yl]amino}benzyl)phosphonate] | < 1000 | < 1000
CCOP(=O)(Cc1ccc(Nc2ncc(C(F)(F)F)c(Nc3ccccc3C(N)=O)n2)c(OC)c1)OCC [Example 190, Diethyl [4-({4-[(2-carbamoylphenyl)amino]-5-(trifluoromethyl)pyrimidin-2-yl}amino)-3-methoxybenzyl]phosphonate] | < 1000 | < 1000
CCOP(C)(=O)Cc1ccc(Nc2ncc(C(F)(F)F)c(Nc3ccc([C@H]4CC[C@H](O)CC4)c4c3C(=O)N(C)C4)n2)c(OC)c1 (stereo partly drawn) [Example 191, Ethyl (4-{[4-{[7-(trans-4-hydroxycyclohexyl)-2-methyl-3-oxo-2,3-dihydro-1H-isoindol-4-yl]amino}-5-(trifluoromethyl)pyrimidin-2-yl]amino}-3-methoxybenzyl) methylphosphinate] | < 1000 | < 1000
CCOP(=O)(Cc1ccc(Nc2ncc(C(F)(F)F)c(Nc3ccc([C@H]4CC[C@@H](O)CC4)cc3C(=O)N(C)C)n2)c(OC)c1)OCC [Example 194, Diethyl (4-{[4-{[2-(dimethylcarbamoyl)-4-(cis-4-hydroxycyclohexyl)phenyl]amino}-5-(trifluoromethyl)pyrimidin-2-yl]amino}-3-methoxybenzyl)phosphonate] | < 1000 | 1000 to 10000
CCOP(=O)(Cc1ccc(Nc2ncc(C(F)(F)F)c(Nc3ccc([C@H]4CC[C@](C)(O)CC4)c4c3C(=O)N(C)C4)n2)c(OC)c1)OCC [Example 196, Diethyl (4-{[4-{[7-(trans-4-hydroxy-4-methylcyclohexyl)-2-methyl-3-oxo-2,3-dihydro-1H-isoindol-4-yl]amino}-5-(trifluoromethyl)pyrimidin-2-yl]amino}-3-methoxybenzyl)phosphonate] | < 1000 | < 1000
CCOP(=O)(Cc1ccc(Nc2ncc(C(F)(F)F)c(Nc3ccc([C@H]4CC[C@@](C)(O)CC4)c4c3C(=O)N(C)C4)n2)c(OC)c1)OCC [Example 197, Diethyl (4-{[4-{[7-(cis-4-hydroxy-4-methylcyclohexyl)-2-methyl-3-oxo-2,3-dihydro-1H-isoindol-4-yl]amino}-5-(trifluoromethyl)pyrimidin-2-yl]amino}-3-methoxybenzyl)phosphonate] | < 1000 | < 1000
CCCP(=O)(CCC)c1ccc(Nc2ncc(C(F)(F)F)c(Nc3ccc([C@H]4CC[C@H](O)CC4)c4c3C(=O)N(C)C4)n2)cc1 [Example 198, 7-{[2-{[4-(Dipropylphosphoryl)phenyl]amino}-5-(trifluoromethyl)pyrimidin-4-yl]amino}-4-(trans-4-hydroxycyclohexyl)-2-methyl-2,3-dihydro-1H-isoindol-1-one] | < 1000 | < 1000
CCOP(=O)(Cc1ccc(Nc2ncc(C(F)(F)F)c(Nc3ccc(N4CCN(C(C)=O)CC4)c4c3C(=O)N(C)C4)n2)cc1)OCC [Example 199, Diethyl (4-{[4-{[7-(4-acetylpiperazin-1-yl)-2-methyl-3-oxo-2,3-dihydro-1H-isoindol-4-yl]amino}-5-(trifluoromethyl)pyrimidin-2-yl]amino}benzyl)phosphonate] | < 1000 | < 1000
CCOP(=O)(Cc1ccc(Nc2ncc(C(F)(F)F)c(Nc3ccc(N4CCN(C)CC4)c4c3C(=O)N(C)C4)n2)cc1)OCC [Example 201, Diethyl (4-{[4-{[2-methyl-7-(4-methylpiperazin-1-yl)-3-oxo-2,3-dihydro-1H-isoindol-4-yl]amino}-5-(trifluoromethyl)pyrimidin-2-yl]amino}benzyl)phosphonate] | < 1000 | < 1000
CCOP(=O)(Cc1ccc(Nc2ncc(C(F)(F)F)c(Nc3cccc4[nH]cc(C)c(=O)c34)n2)cc1)OCC [Example 203, Diethyl [4-({4-[(3-methyl-4-oxo-1,4-dihydroquinolin-5-yl)amino]-5-(trifluoromethyl)pyrimidin-2-yl}amino)benzyl]phosphonate] | < 1000 | < 1000
CCOc1ccc(Nc2nc(Nc3ccc(CP(=O)(OCC)OCC)cc3)ncc2C(F)(F)F)c2c1CN(C)C2=O [Example 206, Diethyl [4-({4-[(7-ethoxy-2-methyl-3-oxo-2,3-dihydro-1H-isoindol-4-yl)amino]-5-(trifluoromethyl)pyrimidin-2-yl}amino)benzyl]phosphonate] | < 1000 | < 1000
CCOP(=O)(Cc1ccc(Nc2ncc(C(F)(F)F)c(Nc3ccc(OC(C)C)c4c3C(=O)N(C)C4)n2)cc1)OCC [Example 207, Diethyl (4-{[4-{[2-methyl-3-oxo-7-(propan-2-yloxy)-2,3-dihydro-1H-isoindol-4-yl]amino}-5-(trifluoromethyl)pyrimidin-2-yl]amino}benzyl)phosphonate] | < 1000 | < 1000
CCOP(=O)(Cc1ccc(Nc2ncc(C(F)(F)F)c(Nc3ccc(N4CCOCC4)c4c3C(=O)N(C)C4)n2)cc1)OCC [Example 208, Diethyl (4-{[4-{[2-methyl-7-(morpholin-4-yl)-3-oxo-2,3-dihydro-1H-isoindol-4-yl]amino}-5-(trifluoromethyl)pyrimidin-2-yl]amino}benzyl)phosphonate] | < 1000 | < 1000
CCOP(=O)(Cc1ccc(Nc2ncc(C(F)(F)F)c(Nc3ccc(OC)c4c3C(=O)N(C)C4)n2)c(OC)c1)OCC [Example 209, Diethyl [3-methoxy-4-({4-[(7-methoxy-2-methyl-3-oxo-2,3-dihydro-1H-isoindol-4-yl)amino]-5-(trifluoromethyl)pyrimidin-2-yl}amino)benzyl]phosphonate] | < 1000 | < 1000
